Measured values: publication PMC12566046, “Arylpiperazinyl-Benzocycloheptapyrrole-Carboxamides Endowed with Dual Anticancer and Antiviral Activities” (Molecules, 2025)
pEC50: −log10 of the molar value.

What was measured:
in vitro [1] = conditions: African green monkey
[2] = Cytotoxicity on uninfected Huh-7 cells (WST-8, crystal violet); conditions: human, uninfected Huh-7 cells
Method: The toxicity of the compounds at the same concentration was tested on the same cells in parallel.
Cytotoxic effects were evaluated on uninfected cells using the WST-8 assay (Orangu, Cell Guidance Systems, Cambridge, UK) and the crystal violet assay [23]. […] Huh-7, MDCK, and Vero TMPRSS cells were seeded at 1 × 10^4, 1.5 × 10^4, and 1.2 × 10^4 cells/well, respectively, and incubated for 48 h (Huh-7 and MDCK) or 24 h (VERO TMPRSS), following conditions matching those of the corresponding antiviral assays in terms of timing and culture medium. At the end of incubation, the medium was replaced with a 10% WST-8 solution in DMEM and incubated for 1 h at 37 °C. Optical density (OD) was then measured at 450 nm using a Varioskan LUX plate reader (ThermoFisher Scientific, Milano, Italy). Subsequently, cells were fixed with 4% buffered formalin solution (Merck®, Darmstadt, Germany), stained with 1% crystal violet (Merck®, Darmstadt, Germany), and the dye was solubilized in 30% acetic acid for 30 min under shaking. OD was then measured at 595 nm as an additional readout of cell viability. The percentage of viability at each concentration was calculated using the formula:% viability = 100 × (ODcompound/ODuntreated control) where ODcompound and ODuntreated are the OD of the cells treated with compound or DMSO, respectively.
The CC50 value was determined by nonlinear regression analysis on GraphPad Prism 7 (San Diego, CA, USA).

[3] = test system: IAV strain A/PR/8/34 (H1N1); conditions: for IAV/MDCK SI: preliminary screening
in vitro [4] = conditions: dog
[5] = test system: K-562 (leukemia cell line); assay: NCI-60 single-dose assay; format: cell-based; conditions: Homo sapiens, K562, read-out: growth inhibition (GI%) and cytotoxicity (negative values)
Excerpt: We first evaluated the cytotoxic activity of tricyclic-pyrrole carboxamides 1–20 using the NCI-60 cell line panel, representing nine different human cancers: leukemia, melanoma, and cancers of the lung, colon, central nervous system (CNS), ovary, kidney, prostate, and breast (the one-dose graph for compounds 1–20 is reported in Supplementary Materials, Figures S43–S62). Compounds 1, 5, 10, 11, 17, and 20 satisfied pre-determined threshold inhibition criteria in a minimum number of cell lines; therefore, they were also tested in the full five-dose assay (Figures S63–S68 in the Supplementary Materials).

[6] = test system: HL-60(TB) (leukemia cell line); assay: NCI-60 single-dose assay; format: cell-based, human; conditions: Homo sapiens, HL-60, read-out: growth inhibition (GI%) and cytotoxicity (negative values)
[7] = test system: T-47D (breast cancer cell line); assay: NCI-60 single-dose assay; format: cell-based, human
Method in brief: (§1)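 NCI-60 one-dose format: each compound is tested at a single dose against human tumour lines for cytotoxic effect.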

[8] = test system: CCRF-CEM (leukemia cell line); assay: NCI-60 single-dose assay; format: cell-based, human
Method in brief: as §1

[9] = test system: HCT-15 (colon cancer cell line); assay: NCI-60 single-dose assay; format: cell-based, human
Method in brief: as §1

[10] = test system: CAKI-1 (renal cancer cell line); assay: NCI-60 single-dose assay; format: cell-based, human
Method in brief: as §1

[11] = test system: RPMI-8226 (leukemia cell line); assay: NCI-60 single-dose assay; format: cell-based, human
Method in brief: as §1

[12] = test system: SK-MEL-2 (melanoma cell line); assay: NCI-60 single-dose assay; format: cell-based, human; conditions: Homo sapiens, SK-MEL-2, read-out: growth inhibition (GI%) and cytotoxicity (negative values)
Method in brief: as §1

[13] = test system: MALME-3M (melanoma cell line); assay: NCI-60 single-dose assay; format: cell-based, human; conditions: Homo sapiens, Malme-3M, read-out: growth inhibition (GI%) and cytotoxicity (negative values)
Method in brief: as §1

[14] = test system: SK-MEL-5 (melanoma cell line); assay: NCI-60 single-dose assay; format: cell-based, human; conditions: human
Method in brief: as §1

[15] = test system: LOX IMVI (melanoma cell line); assay: NCI-60 single-dose assay; format: cell-based, human; conditions: LOX IMVI
Method in brief: as §1

[16] = test system: HCT-116 (colon cancer cell line); assay: NCI-60 single-dose assay; format: cell-based, human
Method in brief: as §1

[17] = test system: NCI-H23 (non-small cell lung cancer cell line); assay: NCI-60 single-dose assay; format: cell-based, human
Method in brief: as §1

[18] = test system: BT-549 (breast cancer cell line); assay: NCI-60 single-dose assay; format: cell-based, human
Method in brief: as §1

[19] = test system: NCI-H460 (non-small cell lung cancer cell line); assay: NCI-60 single-dose assay; format: cell-based, human
Method in brief: as §1

[20] = test system: MDA-MB-231/ATCC (breast cancer cell line); assay: NCI-60 single-dose assay; format: cell-based, human
Method in brief: as §1

[21] = test system: MDA-MB-468 (breast cancer cell line); assay: NCI-60 single-dose assay; format: cell-based, human; conditions: Homo sapiens, MDA-MB-468, read-out: growth inhibition (GI%) and cytotoxicity (negative values)
Method in brief: as §1

[22] = test system: MDA-MB-435 (melanoma cell line); assay: NCI-60 single-dose assay; format: cell-based, human; conditions: Homo sapiens, MDA-MB-435, read-out: growth inhibition (GI%) and cytotoxicity (negative values)
Method in brief: as §1

[23] = test system: MCF-7 (breast cancer cell line); assay: NCI-60 single-dose assay; format: cell-based, human
Method in brief: as §1

[24] = test system: EKVX (non-small cell lung cancer cell line); assay: NCI-60 single-dose assay; format: cell-based, human
Method in brief: as §1

[25] = test system: 786-0 (renal cancer cell line); assay: NCI-60 single-dose assay; format: cell-based, human
Method in brief: as §1

[26] = test system: NCI-H226 (non-small cell lung cancer cell line); assay: NCI-60 single-dose assay; format: cell-based, human
Method in brief: as §1

[27] = test system: COLO 205 (colon cancer cell line); assay: NCI-60 single-dose assay; format: cell-based, human; conditions: Homo sapiens, COLO 205, read-out: growth inhibition (GI%) and cytotoxicity (negative values)
Method in brief: as §1

[28] = test system: SN12C (renal cancer cell line); assay: NCI-60 single-dose assay; format: cell-based, human
Method in brief: as §1

[29] = test system: SW-620 (colon cancer cell line); assay: NCI-60 single-dose assay; format: cell-based, human
Method in brief: as §1

[30] = test system: UO-31 (renal cancer cell line); assay: NCI-60 single-dose assay; format: cell-based, human
Method in brief: as §1

M14 (melanoma cell line) = assay: NCI-60 single-dose assay; format: cell-based, human; conditions: Homo sapiens, M14, read-out: growth inhibition (GI%) and cytotoxicity (negative values)
Method in brief: as §1

[31] = test system: SK-MEL-28 (melanoma cell line); assay: NCI-60 single-dose assay; format: cell-based, human; conditions: Homo sapiens, SK-MEL-28, read-out: growth inhibition (GI%) and cytotoxicity (negative values)
Method in brief: as §1

[32] = test system: HT29 (colon cancer cell line); assay: NCI-60 single-dose assay; format: cell-based, human
Method in brief: as §1

[33] = test system: RXF 393 (renal cancer cell line); assay: NCI-60 single-dose assay; format: cell-based, human; conditions: Homo sapiens, RXF 393, read-out: growth inhibition (GI%) and cytotoxicity (negative values)
Method in brief: as §1

[34] = test system: NCI-H522 (non-small cell lung cancer cell line); assay: NCI-60 single-dose assay; format: cell-based, human; conditions: NCI-H522; 10^−5 M, single dose
Method in brief: as §1

[35] = test system: SARS-CoV-2 VR PV10734 (strain Milano); assay: microbe, parasite or virus in culture; format: cell-based; conditions: preliminary screening (50, 5, 0.5 μM), Vero TMPRSS; read-out: SARS‐CoV‐2/Vero TMPRSS EC50
[36] = Homo sapiens, read-out: growth inhibition (GI%) and cytotoxicity (negative values)

N#Cc1ccccc1N1CCN(CCNC(=O)c2c(Cl)[nH]c3c2CCCc2ccccc2-3)CC1 [Compound 18, 2-Chloro-N-(2-(4-(2-cyanophenyl)piperazin-1-yl)ethyl)-1,4,5,6-tetrahydrobenzo[6,7]cyclohepta[1,2-b]pyrrole-3-carboxamide]
CC50 at 24 h (in vitro [1]): 35 µM | CC50 at 48 h [2]: 15.5 µM | IAV/MDCK SI [3]: 0.28 | CC50 (in vitro [4]): 13.9 µM | inhibition at 10 µM [5]: 75.3% | inhibition at 10 µM [6]: 74.3% | inhibition at 10 µM ([7]; Homo sapiens, T47D, read-out: growth inhibition (GI%) and cytotoxicity (negative values)): 71.8% | inhibition at 10 µM [8, 36]: < 60% | inhibition at 10 µM ([9]; Homo sapiens, HCT-15, read-out: growth inhibition (GI%) and cytotoxicity (negative values)): 61.3% | inhibition at 10 µM ([10]; Homo sapiens, CAKI-1, read-out: growth inhibition (GI%) and cytotoxicity (negative values)): 62.7% | inhibition at 10 µM ([11]; Homo sapiens, RPMI-8226, read-out: growth inhibition (GI%) and cytotoxicity (negative values)): 69.1% | inhibition at 10 µM [12]: < 60% | inhibition at 10 µM [13]: < 60% | growth inhibition (GI%) and cytotoxicity (negative values) [14]: −67.02% | inhibition at 10 µM [15, 36]: < 60% | inhibition at 10 µM ([16]; Homo sapiens, HCT-116, read-out: growth inhibition (GI%) and cytotoxicity (negative values)): 70.1% | inhibition at 10 µM ([17]; Homo sapiens, NCI-H23, read-out: growth inhibition (GI%) and cytotoxicity (negative values)): < 60% | inhibition at 10 µM ([18]; Homo sapiens, BT-549, read-out: growth inhibition (GI%) and cytotoxicity (negative values)): 78.3% | inhibition at 10 µM ([19]; Homo sapiens, NCI-H460, read-out: growth inhibition (GI%) and cytotoxicity (negative values)): < 60% | inhibition at 10 µM ([20]; Homo sapiens, MDA-MB-231, read-out: growth inhibition (GI%) and cytotoxicity (negative values)): < 60% | inhibition at 10 µM [21]: 98.7% | inhibition at 10 µM [22]: 64.5% | inhibition at 10 µM ([23]; Homo sapiens, MCF7, read-out: growth inhibition (GI%) and cytotoxicity (negative values), MCF-7, 10^−5 M): 78.5% | inhibition at 10 µM [24, 36]: 92.8% | inhibition at 10 µM ([25]; Homo sapiens, 786-0, read-out: growth inhibition (GI%) and cytotoxicity (negative values)): < 60% | inhibition at 10 µM ([26]; Homo sapiens, NCI-H226, read-out: growth inhibition (GI%) and cytotoxicity (negative values)): < 60% | inhibition at 10 µM [27]: < 60% | inhibition at 10 µM [28, 36]: < 60% | inhibition at 10 µM ([29]; Homo sapiens, SW-620, read-out: growth inhibition (GI%) and cytotoxicity (negative values)): < 60% | inhibition at 10 µM ([30]; Homo sapiens, UO-31, read-out: growth inhibition (GI%) and cytotoxicity (negative values)): 67% | inhibition at 10 µM (M14 (melanoma cell line)): < 60% | inhibition at 10 µM [31]: < 60% | inhibition at 10 µM ([32]; Homo sapiens, HT-29, read-out: growth inhibition (GI%) and cytotoxicity (negative values)): 64.2% | inhibition at 10 µM [33]: < 60%

N-(3-(4-Benzylpiperazin-1-yl)propyl)-2-chloro-1,4,5,6-tetrahydrobenzo[6,7]cyclohepta[1,2-b]pyrrole-2-carboxamide [Compound 11]
IAV/MDCK SI [3]: 0.30 | pEC50 ([3]; read-out: IAV/MDCK EC50, preliminary screening (50, 5, 0.5 μM), MDCK): 4.75 | growth inhibition (GI%) and cytotoxicity (negative values) ([7]; T-47D, 10^−5 M, single dose): 66.07% | growth inhibition (GI%) and cytotoxicity (negative values) ([8]; 10^−5 M, single dose): 76.14% | growth inhibition (GI%) and cytotoxicity (negative values) ([9]; HCT-15, 10^−5 M, single dose): 84.78% | growth inhibition (GI%) and cytotoxicity (negative values) ([10]; CAKI-1, 10^−5 M, single dose): 91.53% | growth inhibition (GI%) and cytotoxicity (negative values) ([11]; RPMI-8226, 10^−5 M, single dose): 92.04% | growth inhibition (GI%) and cytotoxicity (negative values) ([15]; 10^−5 M, single dose): 99.73% | growth inhibition (GI%) and cytotoxicity (negative values) ([16]; HCT-116, 10^−5 M, single dose): 96.84% | growth inhibition (GI%) and cytotoxicity (negative values) ([17]; NCI-H23, 10^−5 M, single dose): – (GI% values < 60% or no cytotoxicity) | growth inhibition (GI%) and cytotoxicity (negative values) ([18]; BT-549, 10^−5 M, single dose): – (GI% values < 60% and no cytotoxicity) | growth inhibition (GI%) and cytotoxicity (negative values) ([19]; NCI-H460, 10^−5 M, single dose): 98.58% | growth inhibition (GI%) and cytotoxicity (negative values) ([20]; MDA-MB-231/ATCC, 10^−5 M, single dose): 61.71% | growth inhibition (GI%) and cytotoxicity (negative values) [34]: 82.24% | growth inhibition (GI%) and cytotoxicity (negative values) ([23]; MCF-7, 10^−5 M): 90.34% | growth inhibition (GI%) and cytotoxicity (negative values) ([24]; 10^−5 M, single dose): 70.83% | growth inhibition (GI%) and cytotoxicity (negative values) ([25]; 786-0, 10^−5 M, single dose): 72.88% | growth inhibition (GI%) and cytotoxicity (negative values) ([26]; NCI-H226, 10^−5 M, single dose): 64.87% | growth inhibition (GI%) and cytotoxicity (negative values) ([28]; 10^−5 M, single dose): – (GI% values < 60% and no cytotoxicity) | growth inhibition (GI%) and cytotoxicity (negative values) ([29]; SW-620, 10^−5 M, single dose): 86.67% | growth inhibition (GI%) and cytotoxicity (negative values) ([30]; UO-31, 10^−5 M, single dose): 63.12% | growth inhibition (GI%) and cytotoxicity (negative values) ([32]; HT29, 10^−5 M, single dose): 91.03% | pEC50 [35]: 4.75
